Laboratory results from US20260374818A1, “CATIONIC PEPTIDES WITH BROAD SPECTRUM ACTIVITY” (priority 2023, published 2026).
Where two headings read alike, the source gives them in different places.

Key:
[1] = test system: MRSA USA 300 LAC biofilms; experiment: Checkerboard biofilm synergy of AB103-D with antimicrobials, MRSA; format: cell-based, methicillin resistant Staphylococcus aureus; conditions: for FIC: antibiotic used with AB103-D, MRSA USA 300 LAC, ≤0.5 synergy; for Fold decrease AB103-D: in combination of antibiotic with AB103-D; for Fold decrease Antibiotic: in combination with AB103-D
[2] = test system: MRSA USA 300 LAC planktonic cells; experiment: MIC of antibiotics against planktonic cells, MRSA; format: cell-based, methicillin resistant Staphylococcus aureus; conditions: for MIC: Staphylococcus aureus
[3] = test system: P. aeruginosa PAO1 biofilms; experiment: Checkerboard biofilm synergy of AB103-D with antimicrobials, PAO1; format: cell-based, Pseudomonas aeruginosa; conditions: for FIC against biofilms: antibiotic used with AB103-D, PAO1, BM2, ≤0.5 synergy; for Fold Decrease in concentration of AB103-D: in combination of antibiotic with AB103-D; for Fold Decrease in concentration of AB103-D / Fold Decrease in concentration of Antibiotic: PAO1; for Fold Decrease in concentration of Antibiotic: in combination with AB103-D; for Antibiotic MBIC against biofilms: antibiotic alone, PAO1, BM2, at least 70% reduction
[4] = test system: P. aeruginosa PAO1 planktonic cells; experiment: MIC of antibiotics against planktonic cells, PAO1; format: cell-based, Pseudomonas aeruginosa; conditions: for MIC: Pseudomonas aeruginosa; for MIC against planktonic cells in BM2 medium: PAO1, BM2
[5] = read-out: MIC in 10% TSB, 0.1% glucose
[6] = PAO1, read-out: MIC against planktonic cells in BM2 medium
[7] = PAO1, read-out: MIC against planktonic cells in MHB medium

## CCN1CCN(C(=O)N[C@@H](C(=O)N[C@@H]2C(=O)N3[C@@H]2SC(C)(C)[C@@H]3C(=O)O)c2ccccc2)C(=O)C1=O [Piperacillin]
[1]
  FIC: 0.63
[1]; MRSA
  Fold decrease AB103-D: 2-fold
  Fold decrease Antibiotic: 8-fold
[2]; [5]
  MIC: 4 µg/mL
[2]; read-out: MIC in MHB medium
  MIC: 4 µg/mL
[3]
  FIC against biofilms: 1
  Fold Decrease in concentration of AB103-D: 2-fold
  Fold Decrease in concentration of Antibiotic: 2-fold
[4]; [6]
  MIC: 4 µg/mL
[4]; [7]
  MIC: 8 µg/mL

## COc1cc(Cc2cnc(N)nc2N)cc(OC)c1OC [Trimethoprim]
[1]
  FIC: 0.56
[1]; MRSA
  Fold decrease AB103-D: 2-fold
  Fold decrease Antibiotic: 16-fold
[2]; [5]
  MIC: 8 µg/mL
[2]; read-out: MIC in MHB medium
  MIC: 2 µg/mL
[3]
  FIC against biofilms: 1
  Fold Decrease in concentration of AB103-D: 2-fold
  Fold Decrease in concentration of Antibiotic: 2-fold
[4]; [6]
  MIC: 128 µg/mL
[4]; [7]
  MIC: 256 µg/mL

## Benzalkonium-C1
[1]; antibiotic alone, MRSA, at least 70% reduction
  Biofilm MBIC in 10% TSB, 0.1% glucose: 1
[1]
  FIC: 0.5
[1]; MRSA
  Fold decrease AB103-D: 4-fold
  Fold decrease Antibiotic: 4-fold
[2]; MRSA planktonic, 10% TSB, 0.1% glucose
  MIC in 10% TSB, 0.1% glucose: 1
[2]; MRSA planktonic, MHB
  MIC in MHB medium: 0.25 µg/mL
[3]
  Antibiotic MBIC against biofilms: 16 µg/mL
  FIC against biofilms: 0.51
  Fold Decrease in concentration of AB103-D: 2-fold
  Fold Decrease in concentration of Antibiotic: 128-fold
[4]
  MIC against planktonic cells in BM2 medium: 16 µg/mL
[4]; PAO1, MHB
  MIC against planktonic cells in MHB medium: 16 µg/mL

## [H]/N=C(\N/C(=N/[H])NCCCCCCNC(=N)NC(=N)Nc1ccc(Cl)cc1)Nc1ccc(Cl)cc1 [Chlorhexidine]
[1]
  FIC: 0.56
[1]; MRSA
  Fold decrease AB103-D: 2-fold
  Fold decrease Antibiotic: 16-fold
[2]; [5]
  MIC: 1 µg/mL
[2]; read-out: MIC in MHB medium
  MIC: 0.4 µg/mL
[3]
  FIC against biofilms: 0.63
  Fold Decrease in concentration of AB103-D: 8-fold
  Fold Decrease in concentration of Antibiotic: 2-fold
[4]; [6]
  MIC: 4 µg/mL
[4]; [7]
  MIC: 3.12 µg/mL

## C[C@H]1COc2c(N3CCN(C)CC3)c(F)cc3c(=O)c(C(=O)O)cn1c23 [Levofloxacin]
[1]
  FIC: 0.75
[1]; MRSA
  Fold decrease AB103-D: 4-fold
  Fold decrease Antibiotic: 2-fold
[2]; [5]
  MIC: 8 µg/mL
[2]; read-out: MIC in MHB medium
  MIC: 4 µg/mL
[3]
  Antibiotic MBIC against biofilms: 0.125 µg/mL
  FIC against biofilms: 0.63
  Fold Decrease in concentration of AB103-D: 2-fold
  Fold Decrease in concentration of Antibiotic: 8-fold
[4]
  MIC against planktonic cells in BM2 medium: 0.125 µg/mL
[4]; [7]
  MIC: 0.25 µg/mL
